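A five-concentration, 48-hour dose response in 96-well plates underlies each endpoint, interpolated linearly between surrounding concentrations. The concentration for 50% growth inhibition is given as GI50.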 Activity calls are given as the source filed them. Cut-off read from the data, not from the text of the source: active = GI50 up to about 1.1 µM and inactive = higher.
What was measured:
Assay in all cases: growth of human tumour cells (NCI), 48 h
[1] = tested on: A549
[2] = tested on: BT-549
[3] = tested on: CCRF-CEM
[4] = tested on: EKVX
[5] = tested on: HCT-116
[6] = tested on: HL-60
[7] = tested on: HOP-62
[8] = tested on: KM12
[9] = tested on: Malme-3M
[10] = tested on: NCI-H226
[11] = tested on: NCI-H522
[12] = tested on: OVCAR-3
[13] = tested on: RXF 393
[14] = tested on: SF-268
[15] = tested on: SN12C
[16] = tested on: SNB-19
[17] = tested on: T47D
[18] = tested on: TK-10
[19] = tested on: UO-31
[20] = tested on: SR

Measured: GI50

COC(=O)c1ccccc1C1CN=NC12Cc1ccc(C)c(C)c1C2=O (stereo unspecified)
inactive: [1] 57.5 µM | [2] > 100 µM | [3] 34.3 µM | [4] > 100 µM | [5] 29.6 µM | [6] 16.3 µM | [7] > 100 µM | [8] 29.2 µM | [9] > 100 µM | [10] > 100 µM | [11] 6.84 µM | [12] > 100 µM | [13] 76.4 µM | [14] > 100 µM | [15] > 100 µM | [16] > 100 µM | [17] 20.5 µM | [18] 56.2 µM | [19] 93.8 µM

C[C@]12O[C@@]3(C)O[C@@]3(C)[C@]3(C)O[C@]3(C)[C@@]1(C)O2
inactive: [1] > 100 µM | [2] > 100 µM | [4] > 100 µM | [5] > 100 µM | [7] > 100 µM | [8] > 100 µM | [9] > 100 µM | [10] > 100 µM | [11] > 100 µM | [14] > 100 µM | [15] > 100 µM | [16] > 100 µM | [20] > 100 µM | [17] 1.22 µM | [18] > 100 µM | [19] > 100 µM

Cc1ccc(-c2cc[n+]3c(n2)oc2ccccc23)cc1
inactive: [1] 53.3 µM | [2] 28.2 µM | [3] 10.3 µM | [4] 26.4 µM | [5] 29.8 µM | [6] 10.8 µM | [8] 47.1 µM | [9] 13.2 µM | [11] 5.98 µM | [12] 17.7 µM | [14] 43.9 µM | [15] > 100 µM | [16] 69.8 µM | [20] 11 µM | [17] 16.3 µM | [19] 67.3 µM

O=C(NCP(=O)(O)O)c1cccnc1 [(NICOTINAMIDOMETHYL)PHOSPHONIC ACID]
inactive: [1] > 100 µM | [2] > 100 µM | [3] > 100 µM | [4] > 100 µM | [5] > 100 µM | [6] > 100 µM | [7] > 100 µM | [8] > 100 µM | [10] > 100 µM | [12] > 100 µM | [13] > 100 µM | [15] > 100 µM | [16] > 100 µM | [20] > 100 µM | [17] > 100 µM | [18] > 100 µM | [19] > 100 µM

C#CCN(C(=O)C(F)(F)F)C(/C=C\C(=O)OC)(C(=O)OCC)C(=O)OCC
inactive: [1] > 100 µM | [2] > 100 µM | [3] > 100 µM | [4] > 100 µM | [6] > 100 µM | [7] > 100 µM | [8] > 100 µM | [9] > 100 µM | [10] > 100 µM | [11] > 100 µM | [12] > 100 µM | [13] > 100 µM | [14] > 100 µM | [15] > 100 µM | [16] > 100 µM | [17] > 100 µM | [18] > 100 µM | [19] > 100 µM

CCSc1n/c(=C\c2ccc(N(C)C)cc2)c2nnnn12
inactive: [1] > 100 µM | [2] > 100 µM | [3] > 100 µM | [4] > 100 µM | [5] > 100 µM | [6] > 100 µM | [7] > 100 µM | [8] > 100 µM | [9] > 100 µM | [10] > 100 µM | [11] > 100 µM | [12] > 100 µM | [13] > 100 µM | [14] > 100 µM | [15] > 100 µM | [16] > 100 µM | [17] > 100 µM | [18] > 100 µM

C/C=C1\CC(C(=O)OCC)CCCCCCCCCCC1=O (stereo unspecified)
inactive: [1] 51.3 µM | [2] 82.8 µM | [3] 37 µM | [4] 41.5 µM | [5] 33.4 µM | [6] 36.6 µM | [7] > 100 µM | [8] 41.3 µM | [9] 32.4 µM | [10] 25.1 µM | [11] 25.5 µM | [13] 55.8 µM | [14] 53.5 µM | [15] 26.6 µM | [16] 69.2 µM | [17] 26.7 µM | [18] > 100 µM | [19] 37.3 µM

COc1ccc2oc(OC)c(CC=C(C)C)c(=O)c2c1C
inactive: [1] > 100 µM | [2] > 100 µM | [3] > 100 µM | [4] > 100 µM | [5] > 100 µM | [6] > 100 µM | [7] > 100 µM | [8] > 100 µM | [9] > 100 µM | [10] > 100 µM | [11] > 100 µM | [12] > 100 µM | [14] > 100 µM | [15] > 100 µM | [16] > 100 µM | [20] > 100 µM | [17] > 100 µM | [18] > 100 µM | [19] > 100 µM

C=C1CC2[C@H](C)C(=O)CCC2(C)C2=C1C1CCC(C(C)CCC(=C)C(C)C(=O)O)C1(C)CC2=O (stereo partly specified)
inactive: [1] 66.7 µM | [2] 37.2 µM | [3] 11.8 µM | [4] 71.8 µM | [5] 32.5 µM | [6] 15.2 µM | [7] 45.4 µM | [8] 71.4 µM | [9] > 100 µM | [10] 82 µM | [11] 47.1 µM | [12] 30.5 µM | [13] 30.1 µM | [14] > 100 µM | [15] > 100 µM | [16] 69.5 µM | [17] 41.6 µM | [18] 44.9 µM | [19] 30.9 µM

O=C1CC(c2ccc(Cl)cc2)C2(C(=O)NC(=O)NC2=O)C(c2ccc(Cl)cc2)C1 (stereo unspecified)
inactive: [2] 30.7 µM | [3] 30.3 µM | [4] 47.4 µM | [5] 31.6 µM | [6] 19.5 µM | [7] 22.9 µM | [8] 36.4 µM | [9] 17.1 µM | [10] 16 µM | [11] 17.5 µM | [12] 24.9 µM | [13] 15 µM | [14] 42.8 µM | [15] 21.6 µM | [16] 32.3 µM | [17] 17.9 µM | [18] 54.8 µM | [19] 25.6 µM

COc1ccc(-c2[nH]c(-c3ccc(OC)cc3)c(-c3ccccn3)c2-c2ccccn2)cc1
inactive: [1] 40.8 µM | [2] 36.2 µM | [3] 35.2 µM | [4] 72.3 µM | [5] > 100 µM | [6] 32.4 µM | [8] 38.2 µM | [9] 21.1 µM | [10] 85.7 µM | [12] 48.9 µM | [13] 31.3 µM | [14] > 100 µM | [15] 52.2 µM | [16] 68.7 µM | [20] 34.6 µM | [17] 31.5 µM | [18] > 100 µM | [19] 33.7 µM
